The subject of test [1] is MCF7 (breast). The test can be described thus: In vitro cytotoxic activity (MTT) assay, MCF7. The format is cell-based. The following applies: Homo sapiens; MCF7 cells, exposed for 96 hours; read-out: IC50, 50% inhibition of cell proliferation, MCF7 (breast). As for the experimental part:
(§1) Compounds 1-16 were screened for their in vitro cytotoxic activity utilizing a 3-(4,5-dimethyl-thiazol-2-yl)-2,5-diphenyltetrazolium bromide (MTT) assay against selected cancer human cell lines consisting of PC3 (prostate), HCT116 (colon), A375 (melanoma), H1299 (lung), MIAPaCa-2 (pancreas), HL60 (leukemia), MCF7 (breast), MDA-MB-231 (breast) (T. Mosmann, J. Immunol. Meth., 1983, 65, 55-63). The cells were cultured at 37° C. in RMPI1640 medium supplemented with 10% fetal bovine serum, 50 IU/mL penicillin, and 50 μg/mL streptomycin in a 5% CO2 incubator. All cells were sub-cultured 3 times/week by trypsinisation. Viable cells were seeded and allowed to adhere for 12 h before a test drug was added in 96-well plates at an initial density of 1.0×10^5 cells/mL. Tumour cell lines were separately exposed to various concentrations of the tested compounds followed by incubation at a temperature of 37° C. during 96 h inside a medium of fresh RMPI 1640. Cells were subsequently incubated at 37° C. using MTT at 0.5 mg/mL during 4 h. After removal of supernatant, formazan crystals were dissolved in isopropanol and the optical density was measured at 570 nm. CX-4945 was used as a positive control.

Test [2] concerns MIAPaCa-2 (pancreas). Briefly: In vitro cytotoxic activity (MTT) assay, MIAPaCa-2. Type of test: cell-based. As to conditions: Homo sapiens, MIA PaCa-2; MIAPaCa-2 cells, exposed for 96 hours; read-out: IC50, 50% inhibition of cell proliferation, MIAPaCa-2 (pancreas). The method, then:
as §1

For test [3], the system named is A375 (melanoma). Briefly: In vitro cytotoxic activity (MTT) assay, A375. The following applies: Homo sapiens, A-375; A375 cells, exposed for 96 hours; read-out: IC50, 50% inhibition of cell proliferation, A375 (melanoma). Type of test: cell-based. As for the experimental part: as §1
The subject of test [4] is PC3 (prostate). The test can be described thus: In vitro cytotoxic activity (MTT) assay, PC3. Type of test: cell-based. As to conditions: Homo sapiens, PC-3; PC3 cells, exposed for 96 hours; read-out: IC50, 50% inhibition of cell proliferation, PC3 (prostate). The method, then:
as §1

The test system of test [5] is H1299 (lung). The test can be described thus: In vitro cytotoxic activity (MTT) assay, H1299. The format is cell-based. As to conditions: Homo sapiens, NCI-H1299; H1299 cells, exposed for 96 hours; read-out: IC50, 50% inhibition of cell proliferation, H1299 (lung). The method, then: as §1
The target in test [6] is T1, recombinant human CK2 (RRββ-holoenzyme) (Homo sapiens, UniProt P68400).
T1 construct: purchased Millipore
T1 sequence (P68400 whole entry): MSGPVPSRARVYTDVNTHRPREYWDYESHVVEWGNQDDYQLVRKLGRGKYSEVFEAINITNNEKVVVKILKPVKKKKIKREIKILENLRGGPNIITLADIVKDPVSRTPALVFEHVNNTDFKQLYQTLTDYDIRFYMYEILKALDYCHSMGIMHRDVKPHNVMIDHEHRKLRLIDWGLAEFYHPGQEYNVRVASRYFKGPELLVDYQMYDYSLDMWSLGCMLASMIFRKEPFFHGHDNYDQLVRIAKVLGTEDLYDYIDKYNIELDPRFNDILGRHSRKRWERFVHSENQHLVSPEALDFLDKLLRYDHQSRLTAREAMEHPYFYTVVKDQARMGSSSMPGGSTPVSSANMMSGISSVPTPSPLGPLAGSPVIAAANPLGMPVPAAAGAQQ
T1 sequence (P67870 whole entry partner): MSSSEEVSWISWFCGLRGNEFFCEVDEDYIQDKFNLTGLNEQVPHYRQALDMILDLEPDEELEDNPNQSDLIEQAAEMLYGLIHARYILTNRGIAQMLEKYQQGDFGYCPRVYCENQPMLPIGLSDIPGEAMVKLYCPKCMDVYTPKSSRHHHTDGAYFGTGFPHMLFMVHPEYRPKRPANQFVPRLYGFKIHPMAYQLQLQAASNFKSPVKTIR
The test can be described thus: CK2 Kinase Assay (radiometric, [γ-33P]ATP). The format is biochemical. The following applies: final ATP concentration 15 μM, 10 min at 30° C.; read-out: protein kinase CK2 IC50. The method, then: CK2 Kinase Assay was conducted using the protocol as described in Pierre F. et al; J. Med. Chem. 2011, 54, 635-654. The tested compounds in aqueous solution were added at a volume of 10 μL to a reaction mixture comprising 10 μL of assay dilution buffer (ADB; 20 mM MOPS, pH 7.2, 25 mM β-glycerol phosphate, 5 mM EGTA, 1 mM sodium orthovanadate, and 1 mM dithiothreitol), 10 μL of substrate peptide (RRRDDDSDDD, dissolved in ADB at a concentration of 1 mM), 10 μL of recombinant human CK2 (RRββ-holoenzyme, 25 ng dissolved in ADB; Millipore). Reactions were initiated by the addition of 10 μL of ATP solution (90% 75 mMMgCl2, 75 μM ATP (final ATP concentration: 15 μM) dissolved in ADB; 10% [γ-33P] ATP (stock 1 mCi/100 μL; 3000 Ci/mmol (Perkin-Elmer) and maintained for 10 min at 30° C. The reactions were quenched with 100 μL of 0.75% phosphoric acid and then transferred to and filtered through a phosphor cellulose filter plate (Millipore). After washing each well five times with 0.75% phosphoric acid, the plate was dried under vacuum for 5 min and, following the addition of 15 μL of scintillation fluid to each well, the residual radioactivity was measured using a Wallac luminescence counter. The ICso values were derived from eight concentrations of test inhibitors.

Test [7] deals with HL60 (leukemia). The test can be described thus: In vitro cytotoxic activity (MTT) assay, HL60. Type of test: cell-based. As to conditions: Homo sapiens, HL-60; HL60 cells, exposed for 96 hours; read-out: IC50, 50% inhibition of cell proliferation, HL60 (leukemia). As for the experimental part:
as §1

Test [8] has as its system HCT116 (colon). The test can be described thus: In vitro cytotoxic activity (MTT) assay, HCT116. The format is cell-based. The following applies: Homo sapiens, HCT-116; HCT116 cells, exposed for 96 hours; read-out: IC50, 50% inhibition of cell proliferation, HCT116 (colon). The method, then: as §1
The test system of test [9] is MDA-MB-231 (breast). The test can be described thus: In vitro cytotoxic activity (MTT) assay, MDA-MB-231. As to conditions: Homo sapiens; MDA-MB-231 cells, exposed for 96 hours; read-out: IC50, 50% inhibition of cell proliferation, MDA-MB-231 (breast). The format is cell-based. The method, then:
as §1

Each structure is given as a SMILES string.

As for `O=C(O)c1cc2nc(Nc3cccc(Cl)c3)c3cnccc3c2[nH]1` [Compound 1, 5-((3-chlorophenyl)amino)-1H-pyrrolo[3,2-c][2,7]naphthyridine-2-carboxylic Acid], the IC50 is 3.9 µM in [1]; 1.1 µM in test [2]; 2.5 µM in [3]; 2.1 µM in test [4]; 1.2 µM in [5]; 0.035 µM in test [6]. Besides, the IC50 amounted to 2.6 µM in test [7], 1.3 µM in test [8] and 3.3 µM in test [9].

The values above are taken from patent US11891377B1, “Pyrrolo[3,2-c][2,7]naphthyridine-2-carboxylic acid compounds as CK2 inhibitors” (KING FAISAL UNIVERSITY, priority 2023, dated 2024).
